Measured values: patent US10759787B2, “Benzofuran derivative, preparation method thereof and use thereof in medicine” (Jiangsu Hengrui Medicine Co., Ltd., priority 2015, dated 2020)

Experiments:
EZH2-A677G = EZH2-A677G (Homo sapiens (Human), UniProt Q15910, A677G); test: EZH2-A677G mutant enzyme activity assay (HTRF); assay type: biochemical; settings: read-out: IC50 for inhibiting the activity of enzyme EZH2-A677G
Method: (§1) Histone H3 biotin labeling and S-adenosyl methionine were respectively diluted to 50 nM and 50 μM with a kinase buffer, then added to a 384-well plate at 4 μl/well. The test compound was diluted with a kinase buffer (it was diluted from the highest concentration 30 μM in 10 fold concentration gradient to 7 concentration points), then added to the 384-well microtiter plate at 4 μl/well. The plate was incubated at room temperature for 2 hours. Histone H3K27 Me3 monoclonal antibody and Streptavidin-XL665 were diluted to 30 nM and 500 nM by HTRF detection buffer, then added to the 384-well microplate at 10 µl/well and incubated for 1 hour. A well without an EZH2 enzyme and a compound was used as a negative control, and a well with an EZH2 enzyme but without a compound was used as a positive control. […] The compound logarithm concentration vs the inhibition percentage relative to the positive control well was plotted using GraphPad Prism, then the IC50 values were calculated.

[1] = Pharmacokinetics assay in SD rats after intragastrical administration; assay type: in vivo; settings: both sexes, Sprague-Dawley, rat, plasma, po, 5 mg/kg; for Vd/F: read-out: Apparent Distribution Volume Vz/F; for AUC: read-out: Area Under Curve AUC; for CL/F: read-out: Clearance CL/F; for half-life: read-out: Half-Life t1/2 (converted); for MRT: read-out: Mean Residence Time MRT; for Cmax: read-out: Plasma Conc. Cmax
Method: Test Example 3. Pharmacokinetics Assay of the Compounds of Examples 1, 2, 3 and 9 of the Present Invention
SD rats were used as test animals. The drug concentration in plasma at different time points was determined by LC/MS/MS after intragastrical administration of the compounds of Examples 1, 2, 3 and 9 to the rats. The pharmacokinetic behavior of the compounds of the present invention was studied and evaluated in rats.
16 healthy adult Sprague-Dawley (SD) rats, half male and half female, were purchased from SINO-BRITSH SIPPR/BK LAB. ANIMAL LTD., CO, with Certificate No.: SCXK (Shanghai) 2008-0016.
The appropriate amount of each compound was weighed, and added with 0.5% CMC-Na (containing 1% Tween 80) to prepare a 1.0 mg/mL suspension by grinding.
After an overnight fast, 16 SD rats were divided into 4 groups equally, half male and half female, and administered intragastrically the test compounds at an administration volume of 5 mL/kg.
Blood (0.2 mL) was taken from the orbital sinus before administration and at 0.5, 1.0, 2.0, 4.0, 6.0, 8.0, 11.0, and 24.0 hours after administration. The samples were stored in heparinized tubes, and centrifuged for 10 minutes at 3,500 rpm to separate the blood plasma. The plasma samples were stored at −20° C.
The plasma concentration of the test compounds in rat plasma after intragastric administration was determined by LC-MS/MS.
Pharmacokinetic parameters of the compounds of Examples 1, 2, 3 and 9 of the present invention are shown below: […]

Pfeiffer cells = test: In vitro anti-tumor cell growth assay (CellTiter-Glo), Pfeiffer; assay type: cell-based; settings: Homo sapiens, 120 h; Pfeiffer cells (A677G mutant), 5 days; read-out: IC50 for inhibiting the growth activity of tumor cells (Pfeiffer) in vitro
Method: (§2) Test Example 2. Assay for Determining In Vitro Anti-Tumor Cell Growth Activity of the Example Compounds of the Present Invention
(§3) This method was used to determinate the inhibitory effect of the compounds of the present invention on the growth activity of tumor cells (Pfeiffer or WSU-DLCL2) in vitro. Pfeiffer cells carry A677G mutant, and WSU-DLCL2 cells carry Y641F mutant.
(§4) The lymphoma suspension cell line (Pfeiffer or WSU-DLCL2) was cultured in a RPMI-1640 medium containing 10% inactivated Fetal Bovine Serum, 100 U/mL penicillin, and 100 μg/mL streptomycin, and incubated in an incubator with 5% carbon dioxide at 37° C. under a saturated humidity condition, and passaged every 3-4 days.
(§5) A cell sudpension was prepared with a fresh cell medium, added to a 96-well cell culture plate at 8000 cells/well (Pfeiffer) or 2000 cells/well (WSU-DLCL2), and incubated in 5% carbon dioxide at 37° C. incubator overnight. On the day of the experiment, the EZH2 test compounds (final concentration: 20000, 2000, 200, 20, 2, 0.2 nM) were added into the experimental wells for 3 parallel wells per group. A control well with the medium alone but without cells was set up to obtain the background luminescent value. The cell culture plate was incubated in an incubator with 5% carbon dioxide at 37° C. for 5 days.
(§6) After the compounds were applied to the cells for 5 days, the cell culture plate was placed at room temperature for 30 minutes, then a CellTiter-Glo reagent equal to the volume of cell culture medium was added to each well. The contents were mixed on a shaker for 10 minutes, and the […] signal values were recorded. The cell growth inhibition rate was calculated, and the formula was: cell growth inhibiton rate=[(negative control control−experimental group)/(negative control group−background luminescent value)]×100%. The IC50 values (half inhibition rate IC50, i.e., a drug concentration that is required for 50% cell growth inhibition rate) were calculated by software from the cell growth inhibiton rate and the corresponding concentration.

WSU-DLCL2 cells = test: In vitro anti-tumor cell growth assay (CellTiter-Glo), WSU-DLCL2; assay type: cell-based; settings: Homo sapiens, WSUDLCL2, 120 h; WSU-DLCL2 cells (Y641F mutant), 5 days; read-out: IC50 for inhibiting the growth activity of tumor cells (WSU-DLCL2) in vitro
Method: as §2, §3, §4, §5, §6

EZH2-Y641F = EZH2-Y641F (Homo sapiens (Human), UniProt Q15910, Y641F); test: EZH2-Y641F mutant enzyme activity assay (HTRF); assay type: biochemical; settings: read-out: IC50 for inhibiting the activity of enzyme EZH2-Y641F
Sequence of EZH2-Y641F (Q15910 whole entry Y641F): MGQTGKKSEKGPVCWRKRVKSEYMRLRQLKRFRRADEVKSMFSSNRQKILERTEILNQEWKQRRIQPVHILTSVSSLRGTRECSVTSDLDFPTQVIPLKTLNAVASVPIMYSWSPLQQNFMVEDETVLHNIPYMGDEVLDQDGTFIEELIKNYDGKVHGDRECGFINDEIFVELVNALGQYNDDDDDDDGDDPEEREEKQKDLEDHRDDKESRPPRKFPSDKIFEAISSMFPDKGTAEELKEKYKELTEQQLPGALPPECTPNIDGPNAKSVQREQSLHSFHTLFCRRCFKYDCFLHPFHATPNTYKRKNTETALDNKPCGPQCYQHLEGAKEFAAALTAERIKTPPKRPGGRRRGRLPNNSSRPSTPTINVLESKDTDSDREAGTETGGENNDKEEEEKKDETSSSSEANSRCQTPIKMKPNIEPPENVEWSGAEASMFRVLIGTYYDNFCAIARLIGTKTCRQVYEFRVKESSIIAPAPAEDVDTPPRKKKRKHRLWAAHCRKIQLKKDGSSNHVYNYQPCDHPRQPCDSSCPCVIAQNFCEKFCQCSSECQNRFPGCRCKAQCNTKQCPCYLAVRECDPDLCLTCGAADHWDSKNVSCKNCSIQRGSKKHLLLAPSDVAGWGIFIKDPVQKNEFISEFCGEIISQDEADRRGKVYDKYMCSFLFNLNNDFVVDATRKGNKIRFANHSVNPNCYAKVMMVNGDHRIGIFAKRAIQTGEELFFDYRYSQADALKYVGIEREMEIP
Sequence of EZH2-Y641F (O75530 whole entry partner): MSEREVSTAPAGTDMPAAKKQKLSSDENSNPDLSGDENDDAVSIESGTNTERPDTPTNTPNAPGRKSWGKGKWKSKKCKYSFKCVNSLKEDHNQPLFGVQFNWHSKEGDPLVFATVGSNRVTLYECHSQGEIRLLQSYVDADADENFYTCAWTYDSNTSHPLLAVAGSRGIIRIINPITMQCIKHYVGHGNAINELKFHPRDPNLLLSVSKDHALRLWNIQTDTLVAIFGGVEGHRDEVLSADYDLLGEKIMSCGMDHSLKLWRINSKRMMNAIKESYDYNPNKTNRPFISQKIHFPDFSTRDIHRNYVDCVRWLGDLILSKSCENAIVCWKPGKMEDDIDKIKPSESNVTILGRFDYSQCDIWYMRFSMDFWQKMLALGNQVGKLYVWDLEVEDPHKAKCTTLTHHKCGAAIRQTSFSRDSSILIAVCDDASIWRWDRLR
Sequence of EZH2-Y641F (Q15022 whole entry partner): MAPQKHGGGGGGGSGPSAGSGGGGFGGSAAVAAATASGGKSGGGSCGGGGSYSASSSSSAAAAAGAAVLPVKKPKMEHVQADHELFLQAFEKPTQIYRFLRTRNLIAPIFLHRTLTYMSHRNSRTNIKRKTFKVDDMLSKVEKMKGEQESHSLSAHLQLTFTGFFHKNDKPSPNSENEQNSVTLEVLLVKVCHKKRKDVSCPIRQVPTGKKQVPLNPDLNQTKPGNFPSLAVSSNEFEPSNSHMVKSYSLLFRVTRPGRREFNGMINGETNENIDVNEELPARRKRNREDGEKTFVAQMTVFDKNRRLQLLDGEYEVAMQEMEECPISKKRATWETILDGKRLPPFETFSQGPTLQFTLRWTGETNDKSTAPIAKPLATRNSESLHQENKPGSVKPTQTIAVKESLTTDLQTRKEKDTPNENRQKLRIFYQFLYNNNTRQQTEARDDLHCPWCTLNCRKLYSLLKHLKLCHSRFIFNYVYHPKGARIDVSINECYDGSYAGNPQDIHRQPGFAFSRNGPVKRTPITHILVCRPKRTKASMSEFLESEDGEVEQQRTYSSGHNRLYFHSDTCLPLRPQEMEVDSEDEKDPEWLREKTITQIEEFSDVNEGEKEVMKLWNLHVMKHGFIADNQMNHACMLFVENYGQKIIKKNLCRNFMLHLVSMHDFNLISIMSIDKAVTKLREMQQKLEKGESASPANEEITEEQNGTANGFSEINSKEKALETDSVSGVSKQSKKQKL
Sequence of EZH2-Y641F (Q09028 whole entry partner): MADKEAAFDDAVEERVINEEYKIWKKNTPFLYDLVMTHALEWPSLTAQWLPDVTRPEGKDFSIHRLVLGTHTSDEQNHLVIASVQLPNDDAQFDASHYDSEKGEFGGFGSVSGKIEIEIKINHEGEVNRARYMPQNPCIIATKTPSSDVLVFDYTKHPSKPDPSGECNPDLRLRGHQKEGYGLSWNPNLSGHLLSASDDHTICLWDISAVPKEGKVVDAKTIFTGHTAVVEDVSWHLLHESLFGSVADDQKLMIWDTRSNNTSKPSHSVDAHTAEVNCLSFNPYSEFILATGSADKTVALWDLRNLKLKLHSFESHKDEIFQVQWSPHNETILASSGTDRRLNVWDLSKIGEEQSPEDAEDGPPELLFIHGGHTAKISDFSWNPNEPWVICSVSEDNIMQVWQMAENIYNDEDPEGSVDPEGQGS
Sequence of EZH2-Y641F (Q6ZN18 whole entry partner): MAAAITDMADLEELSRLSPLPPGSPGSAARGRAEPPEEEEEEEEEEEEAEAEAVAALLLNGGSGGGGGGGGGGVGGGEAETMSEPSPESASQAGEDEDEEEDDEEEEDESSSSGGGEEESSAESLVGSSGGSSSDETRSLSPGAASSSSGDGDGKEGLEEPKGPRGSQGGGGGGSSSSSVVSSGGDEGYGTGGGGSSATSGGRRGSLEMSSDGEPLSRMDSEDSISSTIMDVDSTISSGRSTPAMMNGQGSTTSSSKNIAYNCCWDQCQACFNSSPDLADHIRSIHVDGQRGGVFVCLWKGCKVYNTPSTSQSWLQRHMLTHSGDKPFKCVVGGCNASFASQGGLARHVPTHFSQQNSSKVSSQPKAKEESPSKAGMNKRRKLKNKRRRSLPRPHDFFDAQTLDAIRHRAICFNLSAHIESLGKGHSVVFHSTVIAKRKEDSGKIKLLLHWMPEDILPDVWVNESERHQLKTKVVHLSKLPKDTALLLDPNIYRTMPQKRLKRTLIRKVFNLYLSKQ
Method: as §1

Sequence of EZH2-A677G (Q15910 whole entry A677G): as the sequence (Q15910 whole entry Y641F) above, with F641Y, A677G counted along it
Sequence of EZH2-A677G (O75530 whole entry partner): as the sequence (O75530 whole entry partner) above
Sequence of EZH2-A677G (Q15022 whole entry partner): as the sequence (Q15022 whole entry partner) above
Sequence of EZH2-A677G (Q09028 whole entry partner): as the sequence (Q09028 whole entry partner) above
Sequence of EZH2-A677G (Q6ZN18 whole entry partner): as the sequence (Q6ZN18 whole entry partner) above

Row | SMILES | IC50 (EZH2-A677G) [nM] | Vd/F [1] [L/kg] | AUC [1] [ng·h/mL] | CL/F [1] [mL/min/kg] | half-life [1] [h] | MRT [1] [h] | Cmax [1] [ng/mL] | IC50 (Pfeiffer cells) [nM] | IC50 (WSU-DLCL2 cells) [nM] | IC50 (EZH2-Y641F) [nM]
1 | CCc1c(N(CC)C2CCOCC2)cc2oc(CN3CCCCC3)cc2c1C(=O)NCc1c(OC)cc(C)[nH]c1=O [Example 1, 5-Ethyl-6-(ethyl(tetrahydro-2H-pyran-4-yl)amino)-N-((4-methoxy-6-methyl-2-oxo-1,2-dihydropyridin-3-yl)methyl)-2-(piperidin-1-ylmethyl)benzofuran-4-carboxamide] | 6.4 | 28.1 ± 18.4 | 246 ± 127 | 390 ± 201 | 0.8 ± 0.13 | 2.37 ± 0.18 | 88.9 ± 77.1 | 2 | – | –
2 | CCc1c(N(CC)C2CCOCC2)cc2oc(CN3CCCCC3)cc2c1C(=O)NCc1c(C)cc(C)[nH]c1=O [Example 2, N-((4,6-Dimethyl-2-oxo-1,2-dihydropyridin-3-yl)methyl)-5-ethyl-6-(ethyl(tetrahydro-2H-pyran-4-yl)amino)-2-(piperidin-1-ylmethyl)benzofuran-4-carboxamide] | – | 41.4 ± 7.91 | 378 | 222 ± 23 | 2.2 ± 0.68 | 3.18 ± 0.3 | 105 ± 44.5 | 13 | 39 | –
3 | CCc1cc(C)[nH]c(=O)c1CNC(=O)c1c(CC)c(N(CC)C2CCOCC2)cc2oc(CN3CCCCC3)cc12 [Example 3, 5-Ethyl-6-(ethyl(tetrahydro-2H-pyran-4-yl)amino)-N-((4-ethyl-6-methyl-2-oxo-1,2-dihydropyridin-3-yl)methyl)-2-(piperidin-1-ylmethyl)benzofuran-4-carboxamide] | 38 | 40.5 ± 7.97 | 487 ± 12 | 171 ± 4.4 | 2.73 ± 0.53 | 4.65 ± 0.184 | 91.5 ± 5.6 | 4 | – | –
4 | CCN(c1cc2occc2c(C(=O)NCc2c(OC)cc(C)[nH]c2=O)c1C)C1CCOCC1 [Example 18, 6-(Ethyl(tetrahydro-2H-pyran-4-yl)amino)-N-((4-methoxy-6-methyl-2-oxo-1,2-dihydropyridin-3-yl)methyl)-5-methylbenzofuran-4-carboxamide] | 4 | – | – | – | – | – | – | 20 | 113 | 2.3
5 | CCN(c1cc2oc(C)cc2c(C(=O)NCc2c(OC)cc(C)[nH]c2=O)c1C)C1CCOCC1 [Example 19, 6-(Ethyl(tetrahydro-2H-pyran-4-yl)amino)-N-((4-methoxy-6-methyl-2-oxo-1,2-dihydropyridin-3-yl)methyl)-2,5-dimethylbenzofuran-4-carboxamide] | 2.9 | – | – | – | – | – | – | 14 | 232 | 2.8
6 | CCN(c1cc2occ(C)c2c(C(=O)NCc2c(OC)cc(C)[nH]c2=O)c1C)C1CCOCC1 [Example 20, 6-(Ethyl(tetrahydro-2H-pyran-4-yl)amino)-N-((4-methoxy-6-methyl-2-oxo-1,2-dihydropyridin-3-yl)methyl)-3,5-dimethylbenzofuran-4-carboxamide] | 5.9 | – | – | – | – | – | – | – | – | 5.6
7 | COc1cc(C)[nH]c(=O)c1CNC(=O)c1c(C)c(N(C)C2CCOCC2)cc2occc12 [Example 23, N-((4-Methoxy-6-methyl-2-oxo-1,2-dihydropyridin-3-yl)methyl)-5-methyl-6-(methyl(tetrahydro-2H-pyran-4-yl)amino)benzofuran-4-carboxamide] | 4.8 | – | – | – | – | – | – | 68 | – | 0.3
8 | CCN(c1cc2occc2c(C(=O)NCc2c(OC)cc(C)[nH]c2=O)c1C)[C@H]1CC[C@H](N(C)C)CC1 [Example 24, 6-(((1r,4r)-4-(Dimethylamino)cyclohexyl)(ethyl)amino)-N-((4-methoxy-6-methyl-2-oxo-1,2-dihydropyridin-3-yl)methyl)-5-methylbenzofuran-4-carboxamide] | – | – | – | – | – | – | – | 19 | 45 | 3.4
9 | CCN(c1cc2occc2c(C(=O)NCc2c(OC)cc(C)[nH]c2=O)c1C)C1CCN(S(C)(=O)=O)CC1 [Example 25, 6-(Ethyl(1-(methylsulfonyl)piperidin-4-yl)amino)-N-((4-methoxy-6-methyl-2-oxo-1,2-dihydropyridin-3-yl)methyl)-5-methylbenzofuran-4-carboxamide] | 0.9 | – | – | – | – | – | – | 15 | 160 | 3.2
10 | CCN(c1cc2occc2c(C(=O)NCc2c(OC)cc(C)[nH]c2=O)c1C)C1CCN(C(C)=O)CC1 [Example 26, 6-((1-Acetylpiperidin-4-yl)(ethyl)amino)-N-((4-methoxy-6-methyl-2-oxo-1,2-dihydropyridin-3-yl)methyl)-5-methylbenzofuran-4-carboxamide] | 2.9 | – | – | – | – | – | – | – | – | 2.8
11 | CCN(c1cc2oc(C#N)cc2c(C(=O)NCc2c(OC)cc(C)[nH]c2=O)c1C)C1CCOCC1 [Example 30, 2-Cyano-6-(ethyl(tetrahydro-2H-pyran-4-yl)amino)-N-((4-methoxy-6-methyl-2-oxo-1,2-dihydropyridin-3-yl)methyl)-5-methylbenzofuran-4-carboxamide] | 0.8 | – | – | – | – | – | – | 17 | – | –
12 | CCc1c(N(CC)C2CCC(F)(F)CC2)cc2occc2c1C(=O)NCc1c(OC)cc(C)[nH]c1=O [Example 31, 6-((4,4-Difluorocyclohexyl)(ethyl)amino)-5-ethyl-N-((4-methoxy-6-methyl-2-oxo-1,2-dihydropyridin-3-yl)methyl)benzofuran-4-carboxamide] | 2.7 | – | – | – | – | – | – | 69 | – | 4.5
13 | CCc1c(N(CC)C2CC(F)(F)C2)cc2occc2c1C(=O)NCc1c(OC)cc(C)[nH]c1=O [Example 32, 6-((3,3-Difluorocyclobutyl)(ethyl)amino)-5-ethyl-N-((4-methoxy-6-methyl-2-oxo-1,2-di hydropyridin-3-yl)methyl)benzofuran-4-carboxamide] | 4 | – | – | – | – | – | – | 18 | 190 | –
14 | CCc1c(N(CC)C2CCS(=O)(=O)CC2)cc2occc2c1C(=O)NCc1c(OC)cc(C)[nH]c1=O [Example 33, 6-((1,1-Dioxidotetrahydro-2H-thiopyran-4-yl)(ethyl)amino)-5-ethyl-N-((4-methoxy-6-methyl-2-oxo-1,2-dihydropyridin-3-yl)methyl)benzofuran-4-carboxamide] | 2.7 | – | – | – | – | – | – | 22 | – | 0.8
